One assay deals with T1, hEP2/Gqs5 (Homo sapiens, UniProt P43116).
T1 construct: expressed in transfected cells
The assay can be described thus: FLIPR calcium signal, EP2. The class given is cell-based. Conditions: HEK-293(EBNA), value outside parentheses, read-out: Ca2+ Signal-EC50 (nM) EP2. The method, boiled down: (§1)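 Stable HEK-293(EBNA) lines expressing recombinant human EP1, TP, or EP2/EP4 coupled via Gqs5; Fluo-4 AM loaded (2 μM, 45 min), HBSS-HEPES pH 7.4, 37° C. Peak FLIPR fluorescence expressed relative to buffer and standard agonist (PGE2 for EP receptors, U-46619 for TP); compounds at 10^−5 M or 10^−5–10^−11 M, duplicates, n≧3.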

Another assay deals with T2, hEP1 (Homo sapiens, UniProt P34995).
T2 construct: expressed in transfected cells
T2 sequence (P34995 1-402): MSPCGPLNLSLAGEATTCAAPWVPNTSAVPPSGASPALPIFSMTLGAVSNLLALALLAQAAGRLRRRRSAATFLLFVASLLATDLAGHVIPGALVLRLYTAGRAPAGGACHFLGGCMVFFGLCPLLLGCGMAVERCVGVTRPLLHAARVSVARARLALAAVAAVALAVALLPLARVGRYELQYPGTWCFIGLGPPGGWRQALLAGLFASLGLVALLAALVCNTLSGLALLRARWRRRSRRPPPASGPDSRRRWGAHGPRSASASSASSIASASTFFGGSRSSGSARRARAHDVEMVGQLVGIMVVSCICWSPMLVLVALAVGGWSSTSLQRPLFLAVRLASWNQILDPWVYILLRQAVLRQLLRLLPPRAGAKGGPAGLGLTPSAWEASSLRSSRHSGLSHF
The assay can be described thus: FLIPR calcium signal, EP1. The class given is cell-based. Conditions: HEK-293(EBNA). The method, boiled down: as §1

The target in a further assay is T3, hEP4/Gqs5 (Homo sapiens, UniProt P35408).
T3 construct: expressed in transfected cells
T3 sequence (P35408 whole entry): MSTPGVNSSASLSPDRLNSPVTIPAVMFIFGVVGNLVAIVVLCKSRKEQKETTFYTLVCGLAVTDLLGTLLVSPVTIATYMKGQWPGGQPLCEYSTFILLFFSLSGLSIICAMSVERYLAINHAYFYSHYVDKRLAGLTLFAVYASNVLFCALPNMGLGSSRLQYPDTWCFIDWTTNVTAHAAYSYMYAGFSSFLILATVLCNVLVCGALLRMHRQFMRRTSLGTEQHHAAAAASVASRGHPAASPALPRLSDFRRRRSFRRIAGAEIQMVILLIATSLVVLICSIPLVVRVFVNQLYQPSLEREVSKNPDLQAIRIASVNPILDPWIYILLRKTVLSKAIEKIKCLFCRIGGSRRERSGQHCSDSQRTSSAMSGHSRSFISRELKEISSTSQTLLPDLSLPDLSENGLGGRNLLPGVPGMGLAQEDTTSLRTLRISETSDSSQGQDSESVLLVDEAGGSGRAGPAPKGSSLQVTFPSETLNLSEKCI
The assay can be described thus: FLIPR calcium signal, EP4. The class given is cell-based. Conditions: HEK-293(EBNA); for EC50: read-out: Ca2+ Signal-EC50 (nM) EP4. The method, boiled down: as §1

In another assay the target is EP2 (Homo sapiens, UniProt P43116). As to the kind of experiment: Competition binding, [3H]PGE2, EP2 (Ki). The arrangement: expressed in transfected cells; membranes or whole cells. Conditions: HEK 293 cells stably expressing human EP2, [3H]PGE2. The method, boiled down: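 Membranes (~60 μg protein) or 2×10^5 HEK 293 cells stably expressing human EP2, in HBSS/20 mM Hepes pH 7.3 with [3H]PGE2 (10 nM), 60 min at 23° C, then filtration. Non-specific binding with 10 μM unlabeled PGE2; single-site fit IC50 converted to Ki using KD 40 nM.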
Sequence of EP2 (P43116 whole entry): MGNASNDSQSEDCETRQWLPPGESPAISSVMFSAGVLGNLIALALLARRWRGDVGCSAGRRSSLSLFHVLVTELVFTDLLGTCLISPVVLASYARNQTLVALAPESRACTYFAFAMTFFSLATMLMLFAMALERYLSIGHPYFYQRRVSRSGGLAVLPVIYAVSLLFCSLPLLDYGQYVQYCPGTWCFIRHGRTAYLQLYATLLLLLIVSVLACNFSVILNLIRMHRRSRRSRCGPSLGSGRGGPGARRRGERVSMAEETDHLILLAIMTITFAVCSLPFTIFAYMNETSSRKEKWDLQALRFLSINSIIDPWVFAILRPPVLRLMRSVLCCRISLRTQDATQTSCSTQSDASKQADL

Molecules are shown by their SMILES.

These results are taken from US7585895B2, “Therapeutic substituted cyclopentanes” (Allergan, Inc., priority 2005, dated 2009).

T1 sequence (P43116 whole entry): as above

Usually EC50 stands for the concentration at which the effect is half-maximal. For orientation: Ki means the dissociation constant of the complex between target and ligand, obtained from inhibition or displacement. Higher therefore signals weaker binding. As to `CCCC(O)c1ccc([C@@H]2[C@@H](C/C=C\CCCC(=O)O)[C@H](Cl)C[C@H]2O)cc1` (stereo partly drawn) [Entry 26, (Z)-7-{(1R,2S,3R,5R)-5-Chloro-3-hydroxy-2-[4-(1-hydroxy-butyl)-phenyl]-cyclopentyl}-hept-5-enoic acid], the EC50 on hEP2/Gqs5 amounted to 154 nM. Also, the “Ca2+ Signal-EC50 (nM) EP1” value on hEP1 is on record as “not active”. Moreover, at hEP4/Gqs5, the “Ca2+ Signal-EC50 (nM) EP4” value is “not active”. At EP2, this compound came in with a Ki of 1660 nM.

Take `O=C(O)CCC/C=C\C[C@@H]1[C@@H](c2ccc(C(O)CCc3ccccc3)cc2)[C@H](O)C[C@H]1Cl` (stereo partly drawn) [Entry 23, (Z)-7-{(1R,2S,3R,5R)-5-Chloro-3-hydroxy-2-[4-(1-hydroxy-3-phenyl-propyl)-phenyl]-cyclopentyl}-hept-5-enoic acid]: the EC50 on hEP2/Gqs5 was 548 nM; at hEP4/Gqs5 it was over 10000 nM. Further, the “Ca2+ Signal-EC50 (nM) EP1” value at hEP1 is reported as “not active”. For the same compound, the Ki at EP2 is 1130 nM.

Take `CCCCCC(O)c1cccc([C@@H]2[C@@H](C/C=C\CCCC(=O)O)[C@H](Cl)C[C@H]2O)c1` (stereo partly drawn) [Entry 29, (Z)-7-{(1R,2S,3R,5R)-5-Chloro-3-hydroxy-2-[3-(1-hydroxy-hexyl)-phenyl]-cyclopentyl}-hept-5-enoic acid]: the EC50 on hEP2/Gqs5 was 119 nM. Moreover, on hEP1, the “Ca2+ Signal-EC50 (nM) EP1” value is given as “not active”. Besides, the “Ca2+ Signal-EC50 (nM) EP4” value on hEP4/Gqs5 was “not active”. On EP2, this compound displayed a Ki of 1390 nM.

Consider `CCCCCC(O)c1ccc([C@@H]2[C@@H](C/C=C\CCCC(=O)O)[C@H](Cl)C[C@H]2O)cc1` (mixture of isomers) [Entry 11, (Z)-7-{(1R,2S,3R,5R)-5-Chloro-3-hydroxy-2-[4-(1-hydroxy-hexyl)-phenyl]-cyclopentyl}-hept-5-enoic acid], for which the concentration giving a half-maximal response (EC50) at hEP2/Gqs5 is 7 nM; at hEP4/Gqs5, over 10000 nM. Moreover, the “Ca2+ Signal-EC50 (nM) EP1” value at hEP1 was “not active”. Moreover, affinity at EP2 was put at a Ki of 209 nM.

Turning to `CCCCCCc1ccc([C@@H]2[C@@H](C/C=C\CCCC(=O)O)[C@H](Cl)C[C@H]2O)cc1` [Entry 33, (Z)-7-[(1R,2S,3R,5R)-5-Chloro-2-(4-hexyl-phenyl)-3-hydroxy-cyclopentyl]-hept-5-enoic acid], the half-maximal effective concentration (EC50) at hEP2/Gqs5 was 26 nM; at hEP4/Gqs5, over 10000 nM. The “Ca2+ Signal-EC50 (nM) EP1” value at hEP1 is given as “not active”. Further, at EP2, the Ki was 83 nM.

Turning to `O=C(O)CCCCCC[C@@H]1[C@@H](c2ccc(C(O)Cc3ccccc3)cc2)[C@H](O)C[C@H]1Cl` (stereo partly drawn) [Entry 22, 7-{(1 R,2S,3R,5R)-5-Chloro-3-hydroxy-2-[4-(1-hydroxy-2-phenyl-ethyl)-phenyl]-cyclopentyl}-heptanoic acid], the EC50 at hEP2/Gqs5 came out at 51 nM; at hEP4/Gqs5, 15800 nM. Further, the “Ca2+ Signal-EC50 (nM) EP1” value on hEP1 is on record as “not active”. On EP2, this compound returned a Ki of 148 nM.

In the case of `CCCCCC(O)c1ccc([C@@H]2[C@@H](CCCc3ncc(C(=O)O)s3)[C@H](Cl)C[C@H]2O)cc1` (stereo partly drawn) [Entry 5, 2-(3-{(1R,2S,3R,5R)-5-Chloro-3-hydroxy-2-[4-(1-hydroxy-hexyl)-phenyl]-cyclopentyl}-propyl)-thiazole-5-carboxylic acid], the EC50 at hEP2/Gqs5 was 619 nM; on hEP4/Gqs5, over 10000 nM. Also, the “Ca2+ Signal-EC50 (nM) EP1” value on hEP1 is recorded as “not active”. The Ki at EP2 is 6170 nM.

`O=C(O)CCC/C=C\C[C@@H]1[C@@H](c2ccc(C(O)CC3CCCCC3)cc2)[C@H](O)C[C@H]1Cl` (mixture of isomers) [Entry 17, (Z)-7-{(1R,2S,3R,5R)-5-Chloro-2-[4-(2-cyclohexyl-1-hydroxy-ethyl)-phenyl]-3-hydroxy-cyclopentyl}-hept-5-enoic acid]: at hEP2/Gqs5, the EC50 is 953 nM. For the same compound, on hEP1, the “Ca2+ Signal-EC50 (nM) EP1” value was “not active”. Besides, on hEP4/Gqs5, the “Ca2+ Signal-EC50 (nM) EP4” value is “not active”. Also, the affinity on EP2 corresponds to a Ki of 483 nM.
